In patent US12378186B2, “Inhibitors of meprin α and β” (VIVORYON THERAPEUTICS N.V., priority 2016, dated 2025) one finds IC50 and Ki data, which are given here for four compounds.

The structures appear in SMILES notation. pIC50, pKi: −log10 of the molar value. Where two headings read alike, the source gives them in different places.

One test addresses T1, hMeprin α (Homo sapiens, UniProt Q16819).
T1 sequence (Q16819 66-746): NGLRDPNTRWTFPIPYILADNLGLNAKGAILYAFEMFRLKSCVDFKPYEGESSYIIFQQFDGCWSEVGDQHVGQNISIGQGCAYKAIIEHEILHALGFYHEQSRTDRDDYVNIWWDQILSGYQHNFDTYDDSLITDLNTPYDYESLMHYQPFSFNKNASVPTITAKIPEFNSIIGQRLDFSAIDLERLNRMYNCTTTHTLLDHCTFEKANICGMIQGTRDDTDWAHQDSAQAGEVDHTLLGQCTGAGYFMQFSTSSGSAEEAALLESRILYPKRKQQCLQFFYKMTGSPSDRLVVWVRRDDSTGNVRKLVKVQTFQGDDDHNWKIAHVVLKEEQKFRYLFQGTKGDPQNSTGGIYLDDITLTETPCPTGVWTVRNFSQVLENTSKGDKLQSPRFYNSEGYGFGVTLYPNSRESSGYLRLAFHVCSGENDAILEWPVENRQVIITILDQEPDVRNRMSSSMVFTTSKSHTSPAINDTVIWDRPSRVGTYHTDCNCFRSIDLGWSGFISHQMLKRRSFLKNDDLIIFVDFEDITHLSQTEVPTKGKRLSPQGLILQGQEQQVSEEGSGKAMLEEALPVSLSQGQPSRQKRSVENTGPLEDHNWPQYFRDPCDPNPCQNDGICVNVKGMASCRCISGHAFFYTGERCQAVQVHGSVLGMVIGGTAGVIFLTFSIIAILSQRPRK
Put plainly: biochemical. The class given is biochemical. The following applies: 30° C., 40 mM HEPES pH 7.4; for pIC50: average IC50, 10 μM substrate, read-out: Meprin Alpha IC50; for pKi: average Ki, 4 substrate concentrations (5-40 μM), read-out: Meprin Alpha Ki.

The target of the next test is T2, hMeprin β (Homo sapiens, UniProt Q16820).
T2 sequence (Q16820 62-701): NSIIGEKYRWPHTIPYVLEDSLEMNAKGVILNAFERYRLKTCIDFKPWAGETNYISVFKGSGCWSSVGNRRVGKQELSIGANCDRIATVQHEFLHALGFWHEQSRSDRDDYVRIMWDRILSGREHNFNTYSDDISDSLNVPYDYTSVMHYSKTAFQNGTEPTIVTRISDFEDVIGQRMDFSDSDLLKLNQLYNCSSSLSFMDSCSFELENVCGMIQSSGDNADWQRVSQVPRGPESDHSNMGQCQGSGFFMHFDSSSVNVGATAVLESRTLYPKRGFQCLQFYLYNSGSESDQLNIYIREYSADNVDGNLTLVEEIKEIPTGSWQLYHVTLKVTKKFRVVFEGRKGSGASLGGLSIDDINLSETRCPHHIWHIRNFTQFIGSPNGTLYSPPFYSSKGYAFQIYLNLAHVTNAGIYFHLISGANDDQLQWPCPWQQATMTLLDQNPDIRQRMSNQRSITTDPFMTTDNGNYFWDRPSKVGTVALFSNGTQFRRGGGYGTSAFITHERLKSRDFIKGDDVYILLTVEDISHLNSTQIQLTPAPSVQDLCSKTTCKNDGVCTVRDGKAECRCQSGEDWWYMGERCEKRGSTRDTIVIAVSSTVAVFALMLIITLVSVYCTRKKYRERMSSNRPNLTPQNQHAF
Put plainly: Enzymatic assay, cleavage of internally quenched peptide substrate, hMeprin β. The class given is biochemical.

On to `O=C(CCN(Cc1ccccc1)Cc1ccccc1)NO` [Example 71, 3-(dibenzylamino) propanehydroxamic acid], for which, on hMeprin α, the pIC50 is 5.77 and the negative logarithm of the Ki (pKi) is 6.21. In addition, the pIC50 against hMeprin β was 4.12.
`O=C(CN(Cc1cccc(OC(F)F)c1)Cc1cccc(OC(F)F)c1)NO` [Example 72]: on hMeprin α, the negative-log IC50 (pIC50) is 5.25 and the pKi is 5.67. The negative-log IC50 (pIC50) at hMeprin β (average IC50, 10 μM substrate, 30° C., 40 mM Tris pH 8.0, read-out: Meprin Beta IC50) is 4.24.
As for `O=C(CN(Cc1cccnc1)Cc1cccnc1)NO` [Example 73, 2-[bis(3-pyridylmethyl)amino]ethanehydroxamic acid], the pIC50 on hMeprin α was 5.71; against hMeprin β it was 4.66. The negative logarithm of the Ki (pKi) on hMeprin α is 6.20.
Regarding `O=C(CCN(Cc1ccc2c(c1)OCO2)Cc1ccc2c(c1)OCO2)NO` [Example 74, 3-[bis(1,3-benzodioxol-5-ylmethyl)amino]-propanehydroxamic acid], at hMeprin α, the negative-log IC50 (pIC50) was 6.82 and the pKi is 7.28. On hMeprin β, this compound gave a negative-log Ki (pKi) of 5.94.

In general, pIC50 refers to −log10 of the IC50, conventionally taken in molar units. As usually defined, the pKi is the negative decadic logarithm of the Ki, by convention in mol/L.
